Data taken from patent publication US12043612B2, “Methods of manufacturing a bifunctional compound, ultrapure forms of the bifunctional compound, and dosage forms comprising the same” (Arvinas Operations, Inc., priority 2020, dated 2024).
Values after ≈ are worked out from the molar mass of the structure shown. Like-named read-outs stand apart in the source and are kept apart here.

Key:
pKa of Compound A = assay type: physicochemical
Method: (§1) This batch was prepared for use in the 28-day good laboratory practice (GLP) toxicology studies using the same synthetic scheme and processing employed in preparation of active pharmaceutical ingredient (API) to be used in the clinical drug product.

[1] = pH-Solubility Profile in buffers and simulated intestinal fluids; assay type: physicochemical; details: read-out: pH-Solubility Profile, Concentration
Method: as §1

MDCK cells = experiment: In vitro permeability in MDCK cells; assay type: in vitro ADME
[2] = Glass transition and recrystallization temperature of amorphous solids; assay type: physicochemical
Method: Thus, while crystals of Compound A are quite stable, there is a significant barrier to transforming to a crystalline state from an amorphous form. Indeed, a ramped temperature increase of a partially-crystalline sample does eventually lead to a recrystallization event, but not until a temperature of 200-220° C. is achieved. […] As discussed below, this robust resistance to crystallization is preserved even in the presence of water.
The amorphous form of pure Compound A is robust with a high Tg and even higher recrystallization temperature. The glass transition temperature does decrease under the plasticizing conditions of high humidity. However, the value is still well above the commonly applied 40-50° C. difference between Tg and any temperature the clinical presentation will encounter.

[3] = Solvent screen for dissolution of crystalline Compound A; assay type: physicochemical
Method: A screen was conducted to determine the optimum solvent for use purifying Compound A and for dissolution of crystalline Compound A prior to spray drying.

In the case of `N#Cc1ccc(O[C@H]2CC[C@H](NC(=O)c3ccc(N4CCC(CN5CCN(c6cc7c(cc6F)C(=O)N(C6CCC(=O)NC6=O)C7=O)CC5)CC4)nn3)CC2)cc1Cl` (stereo partly shown) [Compound A, N-[(1r,4r)-4-(3-chloro-4-cyanophenoxy)cyclohexyl]-6-[4-({4-[2-(2,6-dioxopiperidin-3-yl)-6-fluoro-1,3-dioxo-2,3-dihydro-1H-isoindol-5-yl]piperazin-1-yl}methyl)piperidin-1-yl]pyridazine-3-carboxamide], the pKa1 (pKa of Compound A) is reported as “pKa1 = 6.8”, the pKa2 (pKa of Compound A) is reported as “pKa2 = 2.7” and the solubility ([1]; aqueous buffer, pH 3 200 mM citrate buffer, pH of solution 3.0) is reported as 15 µg/mL (≈ 18.5 µM). It also gave a solubility ([1]; aqueous buffer, pH 5 200 mM citrate buffer, pH of solution 5.0) of 0.5 µg/mL (≈ 0.616 µM), a solubility ([1]; aqueous buffer, pH 6.5 200 mM citrate buffer, pH of solution 6.5) of 0.3 µg/mL (≈ 0.369 µM) and a solubility ([1]; pH 5, fessif, Fed state simulated intestinal fluid, pH of solution 5.0) of 22 µg/mL (≈ 27.1 µM). For the same compound, the solubility ([1]; pH 6.5, fassif, Fasted state simulated intestinal fluid, pH of solution 6.5) was 1 µg/mL (≈ 1.23 µM), the solubility ([1]; simulated gastric fluid, pH 1.2 HCl (aq), pH of solution 1.2) was 397 µg/mL (≈ 489 µM) and the “in vitro permeability in MDCK cells” value (MDCK cells) was “low”. The “glass transition temperature (Tg)” value [2] was 146 °C, the “temperature of recrystallization event” value ([2]; ramped temperature increase of a partially-crystalline sample) was 200-220 °C and the Dissolution ([3]; DCM:Acetone, 53:47% wt., Solids 0.82 wt %, RT) was “Not dissolved”. The Dissolution ([3]; DCM:Ethanol, 92:8% wt., Solids 2.26 wt %, RT) was “Dissolved”, the Dissolution ([3]; DCM:Methanol, 70:30% wt., Solids 3.2 wt %, RT) was “Turbid solution” and the Dissolution ([3]; DCM:Methanol, 80:20% wt., Solids 3.4 wt %, RT) was “Dissolved”. For the same compound, the Dissolution ([3]; DCM:Methanol, 90:10% wt., Solids 5 wt %, RT) was “Dissolved”, the Dissolution ([3]; DCM:Methanol, 90:10% wt., Solids 6.6 wt %, Temperature 30) was “Dissolved” and the Dissolution ([3]; DCM:Methanol, 90:10% wt., Solids 8.1 wt %, Temperature 35) was “Dissolved”. For the same compound, the Dissolution ([3]; DCM:Methanol, 95:5 wt. %., Solids 4.2 wt %, RT) was “Dissolved”, the Dissolution ([3]; DCM, Solids 0.6 wt %, RT) was “Not dissolved” and the Dissolution ([3]; Methanol, Solids 2.8 wt %, RT) was “Not dissolved”. For the same compound, the Dissolution ([3]; THF, Solids 0.7 wt %, RT) was “Not dissolved”.
